From the NIST ThermoML archive (doi:10.1021/je700261b)

Test: xn = mol fraction of the nth substance listed
Settings: Liquid

CCCCO [butan-1-ol] + O=C=O
Settings	mass density [kg/m3]
333.08 K, 16957 kPa, x2 = 0.1842	803.2
333.08 K, 18103 kPa, x2 = 0.1842	804.27
333.08 K, 19053 kPa, x2 = 0.1842	805.14
333.08 K, 20044 kPa, x2 = 0.1842	806.03
333.08 K, 21090 kPa, x2 = 0.1842	807.01
333.08 K, 21974 kPa, x2 = 0.1842	807.82
333.08 K, 22960 kPa, x2 = 0.1842	808.7
333.08 K, 24014 kPa, x2 = 0.1842	809.64
333.08 K, 25045 kPa, x2 = 0.1842	810.58
342.85 K, 1014 kPa, x2 = 0.0251	772.92
342.85 K, 2013 kPa, x2 = 0.0251	773.93
342.85 K, 2982 kPa, x2 = 0.0251	774.9
342.85 K, 4039 kPa, x2 = 0.0251	775.94
342.85 K, 5057 kPa, x2 = 0.0251	776.91
342.85 K, 5993 kPa, x2 = 0.0251	777.79
342.85 K, 7067 kPa, x2 = 0.0251	778.78
342.85 K, 8025 kPa, x2 = 0.0251	779.69
342.85 K, 9013 kPa, x2 = 0.0251	780.6
342.85 K, 10012 kPa, x2 = 0.0251	781.51
342.85 K, 11010 kPa, x2 = 0.0251	782.43
342.85 K, 11969 kPa, x2 = 0.0251	783.27
342.85 K, 13080 kPa, x2 = 0.0251	784.23
342.85 K, 13925 kPa, x2 = 0.0251	784.95
342.85 K, 15055 kPa, x2 = 0.0251	785.93
342.85 K, 16002 kPa, x2 = 0.0251	786.72
342.85 K, 17016 kPa, x2 = 0.0251	787.57
342.85 K, 18007 kPa, x2 = 0.0251	788.39
342.85 K, 19019 kPa, x2 = 0.0251	789.22
342.85 K, 20027 kPa, x2 = 0.0251	790.06
342.85 K, 20996 kPa, x2 = 0.0251	790.82
342.85 K, 22019 kPa, x2 = 0.0251	791.65
342.85 K, 23034 kPa, x2 = 0.0251	792.46
342.85 K, 24052 kPa, x2 = 0.0251	793.28
342.85 K, 25090 kPa, x2 = 0.0251	794.07
342.87 K, 15510 kPa, x2 = 0.9698	598.32
342.87 K, 16022 kPa, x2 = 0.9698	613.97
342.87 K, 17033 kPa, x2 = 0.9698	640.58
342.87 K, 17988 kPa, x2 = 0.9698	661.78
342.87 K, 19001 kPa, x2 = 0.9698	681.25
342.87 K, 20036 kPa, x2 = 0.9698	698.56
342.87 K, 21044 kPa, x2 = 0.9698	713.53
342.87 K, 22014 kPa, x2 = 0.9698	726.53
342.87 K, 23003 kPa, x2 = 0.9698	738.6
342.87 K, 24019 kPa, x2 = 0.9698	749.89
342.87 K, 24944 kPa, x2 = 0.9698	759.52
342.88 K, 1975 kPa, x2 = 0.0857	776.2
342.88 K, 2955 kPa, x2 = 0.0857	777.28
342.88 K, 4033 kPa, x2 = 0.0857	778.42
342.88 K, 5015 kPa, x2 = 0.0857	779.45
342.88 K, 5957 kPa, x2 = 0.0857	780.4
342.88 K, 7027 kPa, x2 = 0.0857	781.49
342.88 K, 7999 kPa, x2 = 0.0857	782.5
342.88 K, 9007 kPa, x2 = 0.0857	783.51
342.88 K, 10003 kPa, x2 = 0.0857	784.47
342.88 K, 11007 kPa, x2 = 0.0857	785.43
342.88 K, 11951 kPa, x2 = 0.0857	786.34
342.88 K, 13010 kPa, x2 = 0.0857	787.34
342.88 K, 14012 kPa, x2 = 0.0857	788.24
342.88 K, 15065 kPa, x2 = 0.0857	789.2
342.88 K, 15994 kPa, x2 = 0.0857	790.07
342.88 K, 17007 kPa, x2 = 0.0857	790.98
342.88 K, 17999 kPa, x2 = 0.0857	791.83
342.88 K, 18990 kPa, x2 = 0.0857	792.72
342.88 K, 20029 kPa, x2 = 0.0857	793.58
342.88 K, 20993 kPa, x2 = 0.0857	794.43
342.88 K, 22004 kPa, x2 = 0.0857	795.26
342.88 K, 23039 kPa, x2 = 0.0857	796.17
342.88 K, 24019 kPa, x2 = 0.0857	796.97
342.88 K, 25064 kPa, x2 = 0.0857	797.88
342.92 K, 12062 kPa, x2 = 0.4972	795.68
342.92 K, 13090 kPa, x2 = 0.4972	797.59
342.92 K, 14017 kPa, x2 = 0.4972	799.27
342.92 K, 15047 kPa, x2 = 0.4972	801.1
342.92 K, 16026 kPa, x2 = 0.4972	802.79
342.92 K, 17041 kPa, x2 = 0.4972	804.51
342.92 K, 18053 kPa, x2 = 0.4972	806.18
342.92 K, 19028 kPa, x2 = 0.4972	807.77
342.92 K, 20046 kPa, x2 = 0.4972	809.4
342.92 K, 21062 kPa, x2 = 0.4972	810.98
342.92 K, 22043 kPa, x2 = 0.4972	812.48
342.92 K, 22996 kPa, x2 = 0.4972	813.92
342.92 K, 24003 kPa, x2 = 0.4972	815.43
342.92 K, 25073 kPa, x2 = 0.4972	816.99
